Experimental data as given in US12502388B2, “Lanthionine synthetase C-like 2-based therapeutics” (NImmune Biopharma, Inc., priority 2014, dated 2025).
“Also recorded” adds a separate entry of the source.

Tests used:
LANCL2 = molecular target: T1, LANCL2 (Homo sapiens, UniProt Q9NS86); test: Surface plasmon resonance (BIACORE T200) binding to immobilized LANCL2; conditions: for Kd: unit inferred, read-out: SPR KD value
T1 sequence (Q9NS86 1-450): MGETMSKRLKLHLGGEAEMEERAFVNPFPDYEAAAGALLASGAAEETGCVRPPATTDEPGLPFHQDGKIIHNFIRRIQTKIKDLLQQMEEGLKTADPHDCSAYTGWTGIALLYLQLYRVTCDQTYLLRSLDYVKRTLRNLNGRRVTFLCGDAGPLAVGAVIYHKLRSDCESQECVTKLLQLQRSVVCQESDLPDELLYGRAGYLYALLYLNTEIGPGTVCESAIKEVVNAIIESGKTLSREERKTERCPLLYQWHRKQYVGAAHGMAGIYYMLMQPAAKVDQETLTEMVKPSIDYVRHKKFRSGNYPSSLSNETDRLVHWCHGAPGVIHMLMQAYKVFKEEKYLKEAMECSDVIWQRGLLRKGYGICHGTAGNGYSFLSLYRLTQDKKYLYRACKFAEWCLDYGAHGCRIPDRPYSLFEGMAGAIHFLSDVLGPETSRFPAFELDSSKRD
From the text: Kinetic determination of LANCL2-small molecule interaction. […] Data were generated in a dose dependent (5-8 titration points) manner in triplicate, and analyzed to determine binding model (Langmuir, conformational shift, etc.), real time associated and disassociation constants, and equilibrium dissociation constant. SPR technology allowed validation of specific LANCL2-phytochemical interactions as well as to gain gold-standard insight into mechanism and rate of binding. The experiments were performed on carboxymethyldextran (CM5) sensor chips by covalently attaching LANCL2 to by amine coupling. Flow cells 1 and 2 of the sensor chip were activated for 720 sec at 10 μl/min with of 1:1 mixture of 0.1 M N-hydroxysuccinimide (NHS) and 0.5 M 1-ethyl-3-(−3-dimethylaminopropyl)-carbodiimide hydrochloride (EDC). Stock LANCL2 (0.41 mg/mL) was diluted to 8.2 μg/mL (1:50 dilution) in 10 mM sodium acetate, pH 5.0 and injected over the activated flow cell 2 surface for 1000 sec at a flow rate of 10 μl/min. After the capture of LANCL2 on flow cell 2 (11000 RU), surfaces of flow cells 1 and 2 were deactivated by injecting 1M ethanolamine for 720 sec at 10 μl/min. The running buffer was 25 mM MOPS containing 0.05% T-20 and 0.15 M NaCl, pH 6.5. […] Each sample was injected for 60 sec (contact time) followed by a dissociation time of 60 sec at a flow rate of 100 μL/min. A stabilization time of 180 sec was used before the next injection. Data was analyzed with BIACORE™ T200 Evaluation Software (version 1) to determine the affinity binding constant (KD) using a 1:1 binding model.
We immobilized purified recombinant LANCL2 protein on BIACORE™ sensor chips and injected small molecules over the protein surface using the microfluidic system of the instrument. Changes in the total mass on chip surface were measured, which corresponds to the small binding to the protein. […] These fast interactions are beyond the technical abilities of the instrument. Therefore, reliable association rate constant (ka) and dissociation rate constant (kd) were not determined. The equilibrium dissociation constant (KD) is commonly used to describe the affinity between a ligand and a protein, such as how tightly a ligand binds to a particular protein. Ligand-protein affinities are influenced by non-covalent intermolecular interactions between the two molecules such as hydrogen bonding, electrostatic interactions, hydrophobic and Van der Waals forces. By plotting the equilibrium binding level against the compound concentration, we were able to measure the steady state affinity (KD) for each interaction (FIG. 8, panels B and D).
In this case we also immobilized purified recombinant LANCL2 protein on BIACORE™ sensor chips and injected small molecules over the protein surface using the microfluidic system of the instrument. Changes in the total mass on chip surface were measured, which corresponds to the small binding to the protein. […] This longer binding can potentially impact the activation of the LANCL2 pathway by triggering more efficacious anti-inflammatory and anti-diabetic and other therapeutic responses.

[1] = tested on: C57BL/6J mice with DSS colitis
Procedure: Mice. […] All mice were maintained in animal facilities.
DSS-induced colitis. Colitis was induced in C57BL/6J mice by administration of 5% (w/v) dextran sodium sulfate (DSS; molecular weight 42 kDa; ICN Biochemicals, Aurora, OH) added to the drinking water. Colonic inflammation was assessed 7 days after DSS treatment. […] DSS-treated, vehicle-treated mice, and iv. […] Twelve mice were included in each group.
Quantitative Real-Time PCR. […] Primers were designed using Oligo 6 software.

[2] = tested on: mice infected with influenza virus
Procedure: Intranasal infection of mice with influenza virus. Mice were anesthetized with 2-5% isofluorane using a vaporizer station, and 50 μL of virus dilution at 10^3 TCID50 was administered through the nostrils (25 μL each one). Mice were then placed in their cages and watched for recovery of anesthesia.
This procedure caused no pain or distress.
Monitoring of mice and disease activity and weighing. Mice were monitored once daily after the infection (or every 4 hours if they developed severe clinical signs of disease equivalent to disease score 2) and were euthanized prior to the planned endpoint if they developed significant signs of illness as measured by weight loss (i.e., 25% gradual loss of initial body weight), dehydration, loss of mobility, guarding/protection of painful area, ruffled fur (piloerection). Mice were weighed once a day for the duration of the experiment.

[3] = tested on: IL-10-/- mice with chronic colitis
[4] = tested on: C57BL/6 mice fed a high-fat diet
[5] = tested on: RAG2-/- mice transferred with naive CD4+ T cells
[6] = flow cytometry, wild-type vs LANCL2-/-
[7] = gene expression, dose-dependent
[8] = gene expression vs untreated mice
[9] = CD4+ T cells from LANCL2-/- donors

From the text for NOD mice: Mice. […] The mice were maintained in animal facilities.
(§1) Assessment of body weight and glucose tolerance.
From the text for db/db mice: Mice and dietary treatments. […] The mice were maintained in animal facilities.
as §1

SMILES: O=C(Nc1ccc(NC(=O)c2cccc(-c3nc4ccccc4[nH]3)c2)cc1)c1cccc(-c2nc3ccccc3[nH]2)c1 [BT-6]
- binding to LANCL2 by SPR in words (LANCL2): strongly bind
- on and off rates in SPR sensorgrams (LANCL2): very fast to bind but not as fast as off

SMILES: O=C(c1cccc(-c2nc3ccccc3[nH]2)n1)N1CCN(C(=O)c2cccc(-c3nc4ccccc4[nH]3)n2)CC1 [BT-11]
- glucose levels following glucose challenge (db/db mice; 0 to 265 minutes after IP glucose): fell toward normal levels more rapidly
- fasting blood glucose (db/db mice; 80 mg/Kg daily oral gavage, weeks 1 and 3): significantly decreased
- glucose prior to the IP glucose challenge (time 0) (db/db mice; 12-h fast): significantly decreases
- fasting blood glucose (NOD mice; 12 h fasting, weeks 0-11, 80 mg/kg/d vs vehicle): significantly lower levels
- clinical histopathological lesions in the pancreas (NOD mice; vs vehicle): significantly reduces
- insulin levels in plasma (NOD mice; week 5): significantly increased levels
- disease activity score ([1]; 5% DSS, 7-day challenge, oral BT-11 vs vehicle): significantly improved
- leukocytic infiltration, mucosal thickening and epithelial erosion, dose-response ([1]; 10 to 80 mg/Kg): decreased in mice with colitis as the dose of BT-11 was increased
- histopathological lesions of the colonic mucosa in LANCL2-/- mice ([1]; LANCL2-/- mice, vehicle or BT-11): the loss of LANCL2 completely abrogates the effect of BT-11
- upregulation of IL-10 secretion in colon and spleen ([1]; LANCL2 knockout mice): completely abrogated in LANCL2 knockout mice
- decrease of inflammation in the gut mucosa (leukocytic infiltration, epithelial erosion, mucosal thickening) ([1]; colonic histopathology): 5 times
- macroscopic lesions in spleen, MLNs and colon ([1]; day 7 post-challenge): significantly decreased
- colonic IL-10 expression by flow cytometry ([1]; dose-response study): follows dose-response dynamics
- FOXP3 expression in the MLN ([1]; dose-response study, flow cytometry): dose-dependent
- upregulation of MHC-II+ CD11c+ granulocytes ([1]; flow cytometry, colon, wild-type vs LANCL2-/-): LANCL2-dependent
- reduction of colonic TNFα expressing cells ([1]; flow cytometry, doses 10, 20, 40, 80 mg/Kg): significantly different at both 40 and 80 mg/Kg of BT-11, but not on lower doses
- reduction of MCP1 in colon and MLN [1, 6]: LANCL2-dependent
- secretion of TNFα in the colon [1, 6]: LANCL2-dependent
- colonic gene expression of IL-10 ([1]; mouse, in vivo): upregulated
- colonic gene expression of LANCL2 ([1]; mouse, in vivo): upregulated
- colonic gene expression of TNFα ([1]; mouse, in vivo): down-regulated
- macroscopic score in colon, MLN and spleen in LANCL2-/- mice ([1]; wild-type vs LANCL2-/- littermates): the loss of LANCL2 abrogated the decrease in macroscopic score
- recovery from colitis (disease activity index) in LANCL2-/- mice ([1]; wild-type vs LANCL2-/- mice): the loss of LANCL2 prevented the mice to recover
- binding to LANCL2 by SPR in words (LANCL2): strongly bind
- on and off rates in SPR sensorgrams (LANCL2): very fast on rates and very fast off rates
- Kd (LANCL2): 6.3 µM
- morbidity (mice losing over 15% of body weight) ([2]; 80 mg/Kg, from day 6 post-infection, vs vehicle): less morbidity
- clinical score for physical appearance ([2]; 40 and 80 mg/Kg): significantly reduced
- activity clinical score ([2]; from day 3, oral 80 or 40 mg/Kg daily): significantly reduced
- disease activity index scores, highest dose vs lower doses ([3]; 80 mg/Kg, from week 13 to end): significantly reduced the scores in comparison to those treated with either 20 or 40 mg/Kg
- macroscopic scores in spleen, MLNs and colon ([3]; 19 weeks, concentrations as low as 20 mg/Kg): greatly and significantly reduced
- disease activity index scores ([3]; 20, 40 and 80 mg/Kg vs vehicle): significantly decreased
- colonic histopathology (leukocytic infiltration, epithelial erosion, mucosal thickening) ([3]; H&E colon sections): significantly reduced inflammation
- FOXP3-expressing CD4+ T cells in MLN and spleen ([3]; flow cytometry): upregulation
- FOXP3-expressing CD4+ T cells in the colonic LP ([3]; flow cytometry): upregulation
- effector Th17 cells (RORγt) in the MLN ([3]; flow cytometry): downregulated
- percentage of F4/80+ macrophages in colonic lamina propria ([3]; flow cytometry): significantly decreased
- percentage of MHC-II+ CD11c+ dendritic cells in colonic lamina propria ([3]; flow cytometry): significantly decreased
- percentage of effector Th1 cells in colonic lamina propria ([3]; flow cytometry): significantly decreased
- Th1 cells in the spleen ([3]; flow cytometry, dose response): downregulation
- colonic expression of LANCL2 [3, 7]: upregulates
- colonic expression of TNFα [3, 7]: downregulates
- normalization of blood glucose after IP glucose challenge ([4]; 2 g/Kg glucose IP after 12 h fasting): significantly faster
- F4/80+ CD11b+ pro-inflammatory macrophages in white adipose tissue ([4]; flow cytometry): significantly reduced
- pro-inflammatory granulocytes (GR1+Ly6chigh) in white adipose tissue ([4]; flow cytometry): significantly reduced
- expression of LANCL2 in WAT [4, 8]: higher expression levels
- mRNA level of MCP-1 in WAT [4, 8]: significantly lower mRNA levels
- mRNA level of TNFα in WAT [4, 8]: significantly lower mRNA levels
- fasting blood glucose ([4]; week 12 of high-fat feeding, vs vehicle): significantly decreased
- effects on disease activity and histopathology with PPARγ-/- donor CD4+ T cells ([5]; 80 mg/Kg): PPARγ independent
- macroscopic scores in spleen, MLNs, colon and ileum ([5]; 80 mg/Kg, 11 weeks): greatly and significantly reduced
- decrease in leukocytic infiltration, epithelial erosion and mucosal thickening in LANCL2-/- transferred recipients [5, 9]: greatly abrogated
- effect on disease activity index with LANCL2-/- donor cells [5, 9]: completely abrogated with the loss of LANCL2
- macroscopic scores with loss of LANCL2 ([5]; LANCL2-/- cells transferred, 80 mg/Kg): the loss of LANCL2 completely abrogated the effect of BT-11
- IFNγ levels in total CD45+ leukocytes in the colon ([5]; flow cytometry): decrease
- IL-10 in CD4+ T cells in the colonic mucosa ([5]; flow cytometry): promoting the expression
- expression of IFNγ in the CD45+ population in MLN and spleen ([5]; flow cytometry): decreased
- levels of FOXP3 and IL-10 in spleen and MLN ([5]; flow cytometry): increases
- regulatory CD4+ T cells (FOXP3) in the colonic mucosa ([5]; flow cytometry): upregulated
- infiltrating F4/80+ CD11b+ pro-inflammatory macrophages in the colon ([5]; flow cytometry, 11 weeks of treatment): significantly lower level
- weight loss ([5]; from 7 weeks until end, vs vehicle): significantly improved
- epithelial erosion in the colon ([5]; histopathology): significantly lower
- inflammation: leukocytic infiltration and mucosal thickening in colon and ileum ([5]; histopathology): significantly reduced inflammation
- disease activity index score ([5]; wild-type CD4+ T cells transferred, BT-11 vs vehicle): significantly reduced

SMILES: O=C(c1cccc(-c2nc3ccccc3[nH]2)n1)N1CCN(C(=O)c2cccc(-c3nc4ccccc4o3)n2)CC1 [BT-15]
- binding to LANCL2 by SPR in words (LANCL2): strongly bind
- on and off rates in SPR sensorgrams (LANCL2): very fast on rates and very fast off rates
- Kd (LANCL2): 11.4 µM

SMILES: O=C1CC=C(/C=C/c2ccc(C(=O)O)o2)CC1 [BT-ABA-5a]
- binding to LANCL2 by SPR in words (LANCL2): strongly bind
- on and off rates in SPR sensorgrams (LANCL2): very fast to bind but not as fast as off; also recorded: slowest off rate
